Read-outs that look alike come from different tables or passages of the source. No end group written: not given here.
Legend:
HLA-A*2402 = HLA-A*2402 (Homo sapiens, UniProt P04439, D101N/D140Y/D185E/E176V/E190D/F33S/G103R/G107R/I119L/I121M/I306V/K335N/L105A/L180Q/L300P/N151K/N90K/Q86E/Q94H/R106L/R138H/R89G/T104I/T345S/V100E/W191G/Y123F); experiment: MHC molecular binding / Capture assay, IC50: A*2402
HLA-A*3002 = HLA-A*3002 (Homo sapiens, UniProt P04439, D101N/D140H/D185E/E176R/F33S/G80R/H175R/K168Q/Q94H/R138E/R41S/V100E); experiment: biochemical; format: binding
HLA-A*2301 = HLA-A*2301 (Homo sapiens, UniProt P04439, D101N/D140Y/D185E/E176V/E190D/F33S/G103R/G107R/H175R/I119L/I121M/I306V/K168Q/K335N/L105A/L300P/N151K/N90K/P307H/Q86E/Q94H/R106L/R138H/R89G/T104I/T345S/V100E/W191G/Y123F); experiment: biochemical; format: binding
HLA-A*2902 = HLA-A*2902 (Homo sapiens, UniProt P04439, A270S/D101N/D185E/E176V/E277Q/E87Q/F33T/G231S/H175R/I121M/I218V/I322F/K168Q/L300P/L318F/M331R/P208A/P217A/Q86L/T323A/T345S/V100A/V358M); experiment: MHC molecular binding / Capture assay, IC50: A*2902
HLA-B*4002 = HLA-B*4002 (Homo sapiens, UniProt P01889, A65T/A93T/A95T/D138N/D201E/D98Y/E176V/E204Q/E69K/K202T/N87E/Q56L/Q94N/R180L/S48T/Y33H/Y91S); experiment: biochemical; format: binding
HLA-B*1801 = HLA-B*1801 (Homo sapiens, UniProt P01889, A329T/A93T/A95T/C349S/D201E/D54G/D98Y/E176V/E187T/E204Q/E69T/K202T/Q94N/R155S/R180L/S121R/V306I/Y140S/Y195H/Y33H/Y91S); experiment: biochemical; format: binding
HLA-B*4001 = HLA-B*4001 (Homo sapiens, UniProt P01889, A65T/A93T/A95T/D138N/D98Y/E176V/E69K/N87E/Q56L/Q94N/R180L/S121R/S35A/S48T/T167S/V36M/W171L/Y33H/Y91S); experiment: biochemical; format: binding
HLA-B*4501 = HLA-B*4501 (Homo sapiens, UniProt P01889, A329T/A65T/A93T/A95T/C349S/D138N/D201E/D98Y/E176V/E187L/E204Q/E69K/H137Y/K202T/L119W/N87E/Q56L/Q94N/R155S/R180D/S121R/S35A/S48T/V127L/V306I/V36M/W191S/Y140L/Y33H/Y91S); experiment: biochemical; format: binding
HLA-B*4402 = HLA-B*4402 (Homo sapiens, UniProt P01889, A223V/A65T/A93T/A95T/D201E/D98Y/E176V/E187L/E204Q/E69K/G107R/H137Y/K202T/L105A/L119I/N104T/N87E/Q56L/Q94N/R106L/R155S/R180D/S101N/S121R/S35A/S48T/T118I/V36M/W191S/Y140D/Y91S); experiment: biochemical; format: binding
[1] = read-out: A*2402 binding affinity (IC50)
[2] = read-out: A*2301 binding affinity (IC50)

In the case of EYRHYQYSF, the IC50 (HLA-A*2402) is reported as 21 nM, the IC50 (HLA-A*3002) is reported as 430 nM and the IC50 (HLA-A*2301) is reported as 2.3 nM. It also gave an IC50 (HLA-A*2902) of 13700 nM.

Work on RYPLTFGW yielded an IC50 (HLA-A*2402) of 127 nM, an IC50 (HLA-A*2301) of 3840 nM and an IC50 (HLA-A*2902; A*2902 binding affinity (IC50)) of 13900 nM.

With RFPLTFGF the IC50 (HLA-A*2402) was 178 nM, the IC50 (HLA-A*3002) was 13500 nM and the IC50 (HLA-A*2301) was 124 nM. The IC50 (HLA-A*2902) was 12800 nM.

Work on LYVVYRDSI yielded an IC50 (HLA-A*2402) of 982 nM, an IC50 (HLA-A*3002) of 3480 nM and an IC50 (HLA-A*2902) of 148000 nM.

AFRDLCIVF was tested, and the IC50 (HLA-A*2402) was 1010 nM, the IC50 (HLA-A*3002) was 3300 nM and the IC50 (HLA-A*2301) was 369 nM. For the same molecule, the IC50 (HLA-A*2902) was 6720 nM.

IEDPPYNSL showed an IC50 (HLA-B*4002) of 688 nM, an IC50 (HLA-B*1801) of 35500 nM and an IC50 (HLA-B*4001) of 16 nM. For the same molecule, the IC50 (HLA-B*4501) was 18700 nM.

Work on AENLWVTKY yielded an IC50 (HLA-B*4002) of 2000 nM, an IC50 (HLA-B*1801) of 511 nM and an IC50 (HLA-B*4001) of 1010 nM. For the same molecule, the IC50 (HLA-B*4501) was 201 nM.

VYREGNPFGF gave an IC50 (HLA-A*2402) of 197 nM, an IC50 (HLA-A*3002) of 21900 nM and an IC50 (HLA-A*2301) of 91 nM. For the same molecule, the IC50 (HLA-A*2902) was 11100 nM.

RFLSKISEF was tested, and the IC50 (HLA-A*2402) was 58 nM, the IC50 (HLA-A*3002) was 201 nM and the IC50 (HLA-A*2301) was 2.5 nM. It also gave an IC50 (HLA-A*2902) of 40100 nM.

With KFLFTDLRF the IC50 (HLA-A*2402) was 12 nM, the IC50 (HLA-A*3002) was 152 nM and the IC50 (HLA-A*2301) was 0.74 nM. The IC50 (HLA-A*2902) was 44 nM.

With `CC(C)C[C@H](NC(=O)[C@H](Cc1c[nH]c2ccccc12)NC(=O)[C@@H]1CCCN1C(=O)[C@H](Cc1ccccc1)NC(=O)[C@H](CO)NC(=O)[C@@H](NC(=O)[C@H](Cc1ccc(O)cc1)NC(=O)[C@@H](N)CCCCN)[C@@H](C)O)C(=O)O` the IC50 (HLA-A*2402) was 208 nM, the IC50 (HLA-A*3002; Binding affinity to A*3002 (expressed as an IC50)) was 346 nM and the IC50 (HLA-A*2301) was 177 nM. The IC50 (HLA-A*2902) was greater than 172000 nM and the IC50 (HLA-A*2902; Binding affinity to A*2902 (expressed as an IC50)) was greater than 172000 nM.

NYACTELKL gave an IC50 (HLA-A*2402) of 1740 nM, an IC50 (HLA-A*3002) of 49100 nM and an IC50 (HLA-A*2301) of 131 nM. For the same molecule, the IC50 (HLA-A*2902) was 77800 nM.

For CEKCSKPCARV, the IC50 (HLA-B*4501; read-out: B*4501) was 1560 nM.

Molecule RYHNISGRW has an IC50 (HLA-A*2402) of 47 nM, an IC50 (HLA-A*3002) of 13 nM and an IC50 (HLA-A*2902) of 105000 nM.

KYSKSSIVGW gave an IC50 (HLA-A*2402) of 4060 nM, an IC50 (HLA-A*3002) greater than 34500 nM and an IC50 (HLA-A*2301) of 491 nM. For the same molecule, the IC50 (HLA-A*2902) was greater than 69400 nM.

Molecule AENLPVTVY has an IC50 (HLA-B*1801) of 20 nM, an IC50 (HLA-B*4001) of 205 nM and an IC50 (HLA-B*4402) of 356 nM. For the same molecule, the IC50 (HLA-B*4501) was 246 nM.

TENLWVTVY gave an IC50 (HLA-B*4001; B*4001) of 14000 nM and an IC50 (HLA-B*4501; B*4501) of 5300 nM.

LFYSKVRKF showed an IC50 (HLA-A*2402) of 2010 nM, an IC50 (HLA-A*3002) of 632 nM and an IC50 (HLA-A*2301) of 277 nM. For the same molecule, the IC50 (HLA-A*2902) was 11200 nM.

VYCKTVLEF gave an IC50 (HLA-A*2402) of 50 nM, an IC50 (HLA-A*3002) of 1140 nM and an IC50 (HLA-A*2301) of 4.7 nM. For the same molecule, the IC50 (HLA-A*2902) was 610 nM.

DEIGVIDLY was tested, and the IC50 (HLA-B*4002; B*4002) was greater than 77300 nM, the IC50 (HLA-B*4001; B*4001) was greater than 114000 nM and the IC50 (HLA-B*4402; B*4402) was 707 nM. The IC50 (HLA-B*4501; B*4501) was greater than 49000 nM.

For AFKDLCIVF, the IC50 (HLA-A*2402) was 284 nM, the IC50 (HLA-A*2301) was 16 nM and the IC50 (HLA-A*2902) was 5850 nM.

Molecule NYSLYGDTF has an IC50 (HLA-A*2402) of 6.4 nM, an IC50 (HLA-A*3002) of 64 nM and an IC50 (HLA-A*2902) of 20900 nM.

For IYGPGPGLIIF, the IC50 (HLA-A*2402; [1]) was 7.4 nM and the IC50 (HLA-A*2301; [2]) was 8 nM.

Work on KIFIKSLFHI yielded an IC50 (HLA-A*2402; [1]) of 4.1 nM, an IC50 (HLA-A*2301; [2]) of 2 nM and an IC50 (HLA-A*2902; read-out: A*2902 binding affinity (IC50)) greater than 50000 nM.

AENLWVTLY gave an IC50 (HLA-B*4002) of 731 nM, an IC50 (HLA-B*1801) of 392 nM and an IC50 (HLA-B*4402) of 199 nM. For the same molecule, the IC50 (HLA-B*4501) was 349 nM.

FYSKVRKYRF showed an IC50 (HLA-A*2402) of 18 nM, an IC50 (HLA-A*3002) of 1230 nM and an IC50 (HLA-A*2301) of 13 nM.

With RYHSIAGQY the IC50 (HLA-A*2402) was 3170 nM, the IC50 (HLA-A*3002) was 1.4 nM and the IC50 (HLA-A*2301) was 1900 nM. It also gave an IC50 (HLA-A*2902) of 544 nM.

AENNWVTVY was tested, and the IC50 (HLA-B*4501) was 99 nM.

For KYYSKISEY, the IC50 (HLA-A*2402) was 11000 nM, the IC50 (HLA-A*3002) was 1.3 nM and the IC50 (HLA-A*2902) was 702 nM.

With AFKDLFVVF the IC50 (HLA-A*2402) was 294 nM, the IC50 (HLA-A*3002) was 829 nM and the IC50 (HLA-A*2301) was 6.8 nM. For the same molecule, the IC50 (HLA-A*2902) was 3050 nM.

AYRDLCIVY was tested, and the IC50 (HLA-A*2402) was 2090 nM, the IC50 (HLA-A*3002) was 66 nM and the IC50 (HLA-A*2301) was 1480 nM. The IC50 (HLA-A*2902) was 7120 nM.

With PYGVCLMCLRF the IC50 (HLA-A*2402; [1]) was 380 nM and the IC50 (HLA-A*2301; [2]) was 100 nM.

In the case of AYKDLFVVY, the IC50 (HLA-A*2402) is reported as 1550 nM, the IC50 (HLA-A*3002) is reported as 1.3 nM and the IC50 (HLA-A*2301) is reported as 905 nM. The IC50 (HLA-A*2902) was 639 nM.

Molecule AENVWVTVY has an IC50 (HLA-B*4002) of 386 nM, an IC50 (HLA-B*4001) of 2240 nM and an IC50 (HLA-B*4501) of 737 nM.

— US20060079453A1, “Hla binding peptides and their uses” (priority 2002, published 2006)
